Data published in paper PMC1968196, “Effect of anthracycline analogs on photolabelling of p-glycoprotein by [125I]iodomycin and [3H]azidopine: relation to lipophilicity and inhibition of daunorubicin transport in multidrug resistant cells” (British Journal of Cancer, 1993).
Values joined by “and” are separate entries in the source; they are usually repeats but may differ in a detail not shown here. Identical values can stand only once. Like-named read-outs stand apart in the source and are kept apart here.

Assays:
[1] = pH 7.45
Excerpt: (§1) Br. J. Cancer (1993), 67, 226 231 ? Macmillan Press Ltd., 1993 Effect of anthracycline analogs on photolabelling of p-glycoprotein by I'25 liodomycin and [3Hlazidopine: Relation to lipophilicity and inhibition of daunorubicin transport in multidrug resistant cells E. Frichel*, E.J.F. Demant2, M. Sehested3 & N.I. Nissen' 'Department of Medicine and Hematology, L 4042, Rigshospitalet-University Hospital, 9, Blegdamsvej, DK-2100 Copenhagen; 2Department of Biochemistry C, The Panum Institute, University of Copenhagen, DK-2200 Copenhagen; 3Department of Pathology, Sundby Hospital, DK-2300 Copenhagen, Denmark. […] We photoaffinity labelled P-glycoprotein in daunorubicin (DNR) resistant Ehrlich ascites tumour cells (EHR2/DNR + ) with a ['25I]iodinated Bolton-Hunter derivative of daunorubicin ([1251]iodomycin) and with [3H]azidopine. […] Anthracyclines are among the most valuable cytostatic agents in clinical use. Their usefulness is, however, limited by the occurrence of tumour cells with the multidrug resistance (MDR) phenotype (Beck, 1987; Bliek & Borst, 1989; Endicott & Ling, 1989; Kaye & Merry, 1985; Moscow & Cowan, 1988). MDR cells have an enhanced amount of a 150- 170 kDa plasma membrane glycoprotein, P-glycoprotein (Pgp) (Kartner et al., 1983 and 1985; Cornwell et al., 1986; Bradley et al., 1988; Beck, 1991a; Roninson, 1991), that may function as a low-specificity transport protein to facilitate the outward transport of cytotoxic agents including the anthracyclines. Thus, increased drug efflux and therefore decreased accumulation is seen in MDR cells not only to the drug for which resistance is developed but also to a wide spectrum of chemically unrelated cytostatics (Bradley et al., 1988; Fojo et al., 1985). […] The aim of this study was to examine these analogs for their ability to com- pete for ligand binding to Pgp and thus service as inhibitors for the outward drug transport system in MDR cells. Anthracycline inter-actions with Pgp were assessed using the specific photolabelling of the protein with [251I]iodomycin, a ['251]iodinated Bolton-Hunter derivative of DNR (Busche et al., 1989a) and with [3H]azidopine ([3H]AZP) which photolabels Pgp in plasma membrane vesicles from EHR2/ DNR + cells (Sehested et al., 1990) as well as in whole cells (Safa et al., 1987; Friche et al., 1990c). […] Material and methods Chemicals Duanorubicin (DNR); AdriamycinR (Doxorubicin/HCl, DOX); 4'-deoxy-4'-iododoxorubicin (DIDOX); and 4- demethoxy-DNR were kindly supplied from Farmitalia, Carlo Erba (Milan, Italy). N,N-dibenzyl-DNR was a gift from Dr Nicholas Bachur, (Baltimore, MD) and N- benzyladriamycin-14-valerate (AD 198) a gift from Professor M. Israel (Memphis, TN). Mitoxantrone was purchased from Lederle (New Jersey, USA), Aclacinomycin A from Lund- beck & Co A/S (Copenhagen, Denmark), OncovinR (Vincristine/HCl, VCR) from Eli Lilly Deutschland GMBH (Giessen, Germany), Cremophor EL from BASF Aktiengesellschaft (Ludwigshafen, Germany), and Tween 80 from the Sigma Chemical Co. (St. Louis, MO). ['251]-Bolton- Hunter reagent (2000 Ci mmol 1), [3H]AZP (42 Ci mmol- ') and non-radioactive AZP were purchased from Amersham International (Amersham, UK). All other chemicals were of analytical grade. Organic solvents were distilled prior to use. Triethylamine was distilled over ninhydrin and anhydrous methanol was stored over molecular sieve (3 A). Tumour cells Cells were either the wild-type Ehrlich ascites tumor line (EHR2) or the corresponding DNR-resistant line (EHR2/ DNR + ) (Dan0, 1971) displaying both the MDR phenotype (Sehested et al., 1990) and as recently shown, decreased Correspondence: E. Friche. Received 22 April 1992; and in revised form 21 September 1992.

EHR2/DNR+ [2] = conditions: in vitro clonogenic assay; ref Friche et al., 1990b; cited from earlier work
P-glycoprotein [3] = assay: [3H]azidopine photolabelling of Pgp in EHR2/DNR+ cells; assay type: binding, mice; conditions: [3H]AZP 0.4 µM
Excerpt: as §1

P-glycoprotein [4] = assay: [125I]iodomycin photolabelling of Pgp in EHR2/DNR+ cells; assay type: binding, mice; conditions: iodomycin 10 nM
Excerpt: as §1

EHR2/DNR+ [5] = conditions: in vivo; ref Friche et al., 1987; cited from earlier work
EHR2/DNR+ cells = conditions: ref Friche et al., 1990a; cited from earlier work
Pgp = system: Pgp; design: method as in Safa et al. (1987); conditions: ref Safa et al., 1987; cited from earlier work
[6] = 40 µM drug (100-fold molar excess)
[7] = 10 µM drug (1000-fold molar excess), 30 min 37°C

Compound	Lipid solubility (O/W), octanol/water partition coefficient [1]	Resistance of EHR2/DNR+ subline (EHR2/DNR+ [2])	Per cent inhibition of [3H]AZP photolabelling of Pgp (P-glycoprotein [3]; 10 µM drug) [%]	Per cent inhibition of [3H]AZP photolabelling of Pgp (P-glycoprotein [3]; 20 µM drug) [%]	Per cent inhibition of [3H]AZP photolabelling of Pgp (P-glycoprotein [3]; [6]) [%]	Per cent inhibition of [125I]iodomycin photolabelling of Pgp (P-glycoprotein [4]; [7]) [%]	Per cent inhibition of [125I]iodomycin photolabelling of Pgp (P-glycoprotein [4]; 20 µM drug) [%]	Per cent inhibition of [125I]iodomycin photolabelling of Pgp (P-glycoprotein [4]; 20 µM drug, listed as DNR) [%]	Per cent inhibition of [125I]iodomycin photolabelling of Pgp (P-glycoprotein [4]; 40 µM drug) [%]	Per cent inhibition of [125I]iodomycin photolabelling of Pgp (P-glycoprotein [4]; 40 µM drug, listed as DNR) [%]	Resistance of EHR2/DNR+ subline (EHR2/DNR+ [5])	Effect on accumulation of DNR (EHR2/DNR+ cells)	Per cent inhibition of [3H]AZP photolabelling of Pgp (P-glycoprotein [3]; 40 µM drug (100-fold molar excess), listed as DOX)	Per cent inhibition of [125I]iodomycin photolabelling of Pgp (P-glycoprotein [4]; 10 µM drug (1000-fold molar excess), 30 min 37°C, listed as DOX)	Per cent inhibition of [125I]iodomycin photolabelling of Pgp (P-glycoprotein [4]; 40 µM drug, listed as DOX)	Inhibition of [3H]AZP labelling of Pgp (Pgp) [%]
COc1cccc2c1C(=O)c1c(O)c3c(c(O)c1C2=O)C[C@@](O)(C(C)=O)C[C@@H]3O[C@H]1C[C@H](N)[C@H](O)[C@H](C)O1 [Daunorubicin]	7.85	about 80 fold	8.0	33.2	50.0	52.5	82.7	83	90.6	90	at least 16 fold					
COc1cccc2c1C(=O)c1c(O)c3c(c(O)c1C2=O)C[C@@](O)(C(=O)CO)C[C@@H]3O[C@H]1C[C@H](N)[C@H](O)[C@H](C)O1 [Doxorubicin]	1.22		0	10.5	11.0	0	0		16.8			does not increase accumulation of DNR	10-17%	did not cause significant inhibition	17% and 10-17%	19
